The values below come from US20070270458A1 (priority 2003, published 2007).

In the assay the target is α7 nAChR subtype (Rattus norvegicus, UniProt Q05941). Type of assay: binding.

One may read the pKd as the negative decadic logarithm of the Kd, by convention in mol/L. Read a low pKd as a large Kd.

pKd: −log10 of the molar value.

Chain of α7 nAChR subtype (Q05941 23-502 limits assumed): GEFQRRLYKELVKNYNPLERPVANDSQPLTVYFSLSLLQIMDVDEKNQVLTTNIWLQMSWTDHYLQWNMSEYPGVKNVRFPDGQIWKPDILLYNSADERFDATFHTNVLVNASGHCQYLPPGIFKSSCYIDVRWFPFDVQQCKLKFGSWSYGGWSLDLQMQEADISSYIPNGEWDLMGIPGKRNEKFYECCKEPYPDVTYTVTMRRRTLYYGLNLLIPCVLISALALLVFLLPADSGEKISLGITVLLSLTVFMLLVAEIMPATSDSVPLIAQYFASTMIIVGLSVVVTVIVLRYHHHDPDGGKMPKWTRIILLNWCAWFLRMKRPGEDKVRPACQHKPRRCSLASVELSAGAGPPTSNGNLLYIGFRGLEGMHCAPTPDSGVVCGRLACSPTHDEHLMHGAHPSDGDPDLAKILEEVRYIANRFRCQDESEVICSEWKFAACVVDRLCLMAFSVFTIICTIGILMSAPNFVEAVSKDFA

For ^125I-α—Bungarotoxin [^125I-α-BTX], the pKd is 8.78.
